Each structure is given as a SMILES string.

For test [1], the system named is MM011. The test can be described thus: Cell viability assay (PrestoBlue), 72h. The following applies: Homo sapiens.
Procedure: (§1) Cells were grown at 37°C in 5% CO2 (10% for Hermes 3A) and were regularly checked for mycoplasma contamination. […] Melanoma cell lines 501mel and SKmel28 were grown in RPMI w/o HEPES (Gibco, Invitrogen) supplemented with 10% FCS and gentamycin. Vemurafenib-resistant cells (501melVemuR and MM074VemuR) were additionally supplemented with 1.5 µM of vemurafenib. Melanoma IGR cell lines (IGR37 and IGR39) were grown in RPMI w/o HEPES (Gibco, Invitrogen) supplemented with 15% FCS and gentamycin.
(§2) To determine the IC50 (half maximal inhibitory concentration) of these cells to various inhibitors, cell viability assays were performed.
(§3) After 72h of treatment with different concentrations of the compounds, cells were treated with PrestoBlue reagent according to the manufacturer's instructions. The absorbance per well was measured with a Cellinsight CX5 microplate reader. Data were analyzed using Prism9 statistical software.
Test [2] concerns SKMEL-28. Nature of the test: Cell viability assay (PrestoBlue), 72h. The note with it: Homo sapiens, SK-MEL-28, 72 h.
Procedure: as §1, §2, §3
Test [3] deals with MM074^VemuR. Nature of the test: Cell viability assay (PrestoBlue), 72h. The note with it: Homo sapiens.
Procedure: Cells were grown at 37°C in 5% CO2 (10% for Hermes 3A) and were regularly checked for mycoplasma contamination. MM patient-derived short-term melanoma cultures (MM011, MM074, MM117, MM029, MM047, MM099) were grown in HAM-F10 (Gibco, Invitrogen) supplemented with 10% Fetal Calf Serum (FCS), 25 mM HEPES, 5.2 mM GLUTAMAX and penicillin-streptomycin. Melanoma cell lines 501mel and SKmel28 were grown in RPMI w/o HEPES (Gibco, Invitrogen) supplemented with 10% FCS and gentamycin. Vemurafenib-resistant cells (501melVemuR and MM074VemuR) were additionally supplemented with 1.5 µM of vemurafenib. Melanoma IGR cell lines (IGR37 and IGR39) were grown in RPMI w/o HEPES (Gibco, Invitrogen) supplemented with 15% FCS and gentamycin.
as §2, §3
Test [4] deals with MM074. The test can be described thus: Cell viability assay (PrestoBlue), 72h. The note with it: Homo sapiens.
Procedure: as §1, §2, §3
The subject of test [5] is melanoma cells. The test can be described thus: Apoptosis by flow cytometry (AnnexinV-APC). In kind it is cell-based, human. The following applies: IC50 concentrations, Annexin V-APC. The protocol:
After 48h of incubation, cells were rinsed and incubated with AnnexinV-APC (BD Biosciences). Cell proliferation and apoptosis were detected on a BD LSRFortessaTM Flow Cytometer. Data were analyzed with FlowJo software. To define slow proliferating or apoptotic cells: it was considered that slow proliferating cells represented the 30% of cells with the highest concentration of CellTrace Violet signal in the DMSO control. […] For apoptotic cells, it was considered the 20% of cells with the highest signal of AnnexinV-APC in the DMSO control.
(Flow cytometry measures light scatter and fluorescence of single cells or particles in a stream.)

Test [6] relates to all melanoma cells. Nature of the test: Cell viability assay (PrestoBlue), summary over all melanoma cells. In kind it is cell-based. The note with it: Homo sapiens, read-out: IC50 values.
Test [7] concerns MM047. Nature of the test: Cell viability assay (PrestoBlue), 72h. The following applies: Homo sapiens.
Procedure: (§4) Cells were grown at 37°C in 5% CO2 (10% for Hermes 3A) and were regularly checked for mycoplasma contamination. […] Melanoma IGR cell lines (IGR37 and IGR39) were grown in RPMI w/o HEPES (Gibco, Invitrogen) supplemented with 15% FCS and gentamycin.
as §2, §3
Test [8] relates to MM029. Nature of the test: Cell viability assay (PrestoBlue), 72h. The note with it: Homo sapiens.
Procedure: as §4, §2, §3
The subject of test [9] is MM074 and MM029 cells. The following applies: MM074 and MM029, 10×IC50 for 8h.
Procedure: Purified RNA was subjected to library preparation and high throughput sequencing on Illumina NovaSeq as signal-read 50 base reads following manufacturer's instructions. Sequenced samples were analyzed using nf-core RNAseq pipeline v1.3, quality controlled, trimmed, and aligned to the reference human genome using HISAT2. The identification and quantification of transcripts were performed using feature Counts from subread package. Differential expressed gene (DEG) analysis were done using DeSeq2.

What is called IC50 is the concentration that inhibits the measured activity by half. With `COc1c(C)cc2c(c1O)[C@@H]1[C@@H]3[C@@H]4SC[C@]5(N[C@H](CO)Cc6c5[nH]c5ccccc65)C(=O)OC[C@@H](c5c6c(c(C)c(OC(C)=O)c54)OCO6)N3[C@@H](O)[C@H](C2)N1C` [PM14, ecubectedin], the half-maximal inhibitory concentration (IC50) in test [1] was 1.07 nM; in test [2], 1.31 nM; in test [3], 1.63 nM; in [4], 1.15 nM; in test [6], 0.3 to 4.73 nM; in [7] it was 0.96 nM. In test [8], this compound yielded an IC50 of 1.4 nM. Besides, in test [5], the apoptosis result is “induction of apoptosis”.
For the compound `COc1c(C)cc2c(c1O)[C@@H]1[C@@H]3[C@@H]4SC[C@]5(N[C@H](CO)Cc6c5oc5ccccc65)C(=O)OC[C@@H](c5c6c(c(C)c(OC(C)=O)c54)OCO6)N3[C@@H](O)[C@H](C2)N1C` [Compound IA], the half-inhibitory concentration (IC50) in test [1] was 1.44 nM; in [2] it was 1.74 nM; in [3] it was 3.08 nM; in test [4], 3.81 nM; in [6] it was 0.3 to 4.73 nM; in test [7], 1.38 nM. Further, the IC50 in test [8] amounted to 4.73 nM. The apoptosis entry in test [5] is on record as “induction of apoptosis”. The “transcriptional effects compared to lurbinectedin” value in test [9] is “dissimilar and fewer genes being deregulated”.

These data come from patent EP4563149A1, “LURBINECTEDIN, ECUBECTEDIN AND A RELATED COMPOUND FOR USE IN THE TREATMENT OF SKIN CANCERS” (Pharma Mar, S.A., priority 2023, dated 2025).
